Results on 15 compounds are retold here after US20240124417A1, “COMPOUNDS USEFUL AS IMMUNOMODULATORS” (Bristol-Myers Squibb Company, priority 2019, published 2024).

A word on the pIC50: it is the negative decadic logarithm of the IC50, by convention in mol/L.

Each structure is given as a SMILES string. pIC50: −log10 of the molar value.

T1 sequence (Q9NZQ7 18-239): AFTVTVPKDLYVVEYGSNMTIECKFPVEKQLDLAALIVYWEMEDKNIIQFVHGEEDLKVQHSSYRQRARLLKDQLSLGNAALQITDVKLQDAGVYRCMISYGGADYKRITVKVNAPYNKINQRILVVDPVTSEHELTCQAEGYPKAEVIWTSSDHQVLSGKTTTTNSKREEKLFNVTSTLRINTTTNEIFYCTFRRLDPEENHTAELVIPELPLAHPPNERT

The test addresses T1, PD-1/PD-L1 (Homo sapiens, UniProt Q9NZQ7).
T1 construct: TVMV protease site linker (C); made in house; host or cells: HEK293T cells
Briefly: PD-1/PD-L1 Homogenous Time-Resolved Fluorescence (HTRF) binding assay. As to conditions: PD-L1-His 10 nM, PD-1-Ig 20 nM. An outline of the steps: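 Inhibitors pre-incubated 15 min with PD-L1-His extracellular domain (10 nM final) in dPBS with 0.1% BSA and 0.05% Tween-20, then PD-1-Ig (20 nM final) added for a further 15 min. Read-out by HTRF with europium cryptate anti-Ig (1 nM) and APC anti-His (20 nM). Related pairs: PD-1-Ig/PD-L2-His (20/5 nM), CD80-His/PD-L1-Ig (100/10 nM).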
On the technique in general: In TR-FRET formats the signal depends on donor and acceptor labels being close together.
`CC(=O)NC1CCN(CCCOc2cccc(-c3cccc(COc4cc(OCc5cncc(C#N)c5)c(CN5CCC(c6nnn[nH]6)C5)cc4Cl)c3C)c2Cl)CC1` (stereo not drawn) [Example 1058, N-(1-(3-((3′-((4-((3-(1H-Tetrazol-5-yl)pyrrolidin-1-yl)methyl)-2-chloro-5-((5-cyano-pyridin-3-yl)methoxy)phenoxy)methyl)-2-chloro-2′-methyl-[1,1′-biphenyl]-3-yl)oxy)-propyl)piperidin-4-yl)acetamide] had a pIC50 of 8.72.

Take `CC(=O)NC1CCN(CCCOc2cccc(-c3cccc(COc4cc(OCc5cncc(C#N)c5)c(CN5CCCCC5c5cn[nH]c5)cc4Cl)c3C)c2Cl)CC1` (stereo not drawn) [Example 1059, N-(1-(3-((3′-((4-((2-(1H-Pyrazol-4-yl)piperidin-1-yl)methyl)-2-chloro-5-((5-cyano-pyridin-3-yl)methoxy)phenoxy)methyl)-2-chloro-2′-methyl-[1,1′-biphenyl]-3-yl)oxy)-propyl)piperidin-4-yl)acetamide]: the negative-log IC50 (pIC50) was 8.44.

`Cc1c(COc2cc(OCc3cncc(C#N)c3)c(CNCc3cc[nH]n3)cc2Cl)cccc1-c1cccc(OCCCN2CC[C@@H](O)C2)c1C` [Example 2001, (R)-5-((2-((((1H-pyrazol-3-yl)methyl)amino)methyl)-4-chloro-5-((3′-(3-(3-hydroxypyrrolidin-1-yl)propoxy)-2,2′-dimethyl-[1,1′-biphenyl]-3-yl)methoxy)phenoxy)methyl)nicotinonitrile] gave a pIC50 of 9.70.

Consider `Cc1c(COc2cc(OCc3cncc(C#N)c3)c(CNCc3ncn[nH]3)cc2Cl)cccc1-c1cccc(OCCCN2CC[C@@H](O)C2)c1C` [Example 2002, (R)-5-((2-((((1H-1,2,4-triazol-5-yl)methyl)amino)methyl)-4-chloro-5-((3′-(3-(3-hydroxypyrrolidin-1-yl)propoxy)-2,2′-dimethyl-[1,1′-biphenyl]-3-yl)methoxy)phenoxy)methyl)nicotinonitrile], for which the negative-log IC50 (pIC50) was 8.03.

`Cc1c(COc2cc(OCc3cncc(C#N)c3)c(CNCc3c[nH]cn3)cc2Cl)cccc1-c1cccc(OCCCN2CC[C@@H](O)C2)c1C` [Example 2003, (R)-5-((2-((((1H-imidazol-4-yl)methyl)amino)methyl)-4-chloro-5-((3′-(3-(3-hydroxypyrrolidin-1-yl)propoxy)-2,2′-dimethyl-[1,1′-biphenyl]-3-yl)methoxy)phenoxy)methyl)nicotinonitrile] showed a negative logarithm of the IC50 (pIC50) of 8.14.

`Cc1c(COc2cc(OCc3cncc(C#N)c3)c(CNCc3ncc[nH]3)cc2Cl)cccc1-c1cccc(OCCCN2CC[C@@H](O)C2)c1C` [Example 2004, (R)-5-((2-((((1H-imidazol-2-yl)methyl)amino)methyl)-4-chloro-5-((3′-(3-(3-hydroxypyrrolidin-1-yl)propoxy)-2,2′-dimethyl-[1,1′-biphenyl]-3-yl)methoxy)phenoxy)methyl)nicotinonitrile] had a negative-log IC50 (pIC50) of 8.39.

Turning to `Cc1c(COc2cc(OCc3cncc(C#N)c3)c(CN(C)Cc3cc[nH]n3)cc2Cl)cccc1-c1cccc(OCCCN2CC[C@@H](O)C2)c1C` [Example 2005, (R)-5-((2-((((1H-pyrazol-3-yl)methyl)(methyl)amino)methyl)-4-chloro-5-((3′-(3-(3-hydroxypyrrolidin-1-yl)propoxy)-2,2′-dimethyl-[1,1′-biphenyl]-3-yl)methoxy)phenoxy)methyl)nicotinonitrile], the pIC50 is 8.60.

In the case of `Cc1c(COc2cc(OCc3cncc(C#N)c3)c(CN(C)Cc3ncn[nH]3)cc2Cl)cccc1-c1cccc(OCCCN2CC[C@@H](O)C2)c1C` [Example 2006, (R)-5-((2-((((1H-1,2,4-triazol-5-yl)methyl)(methyl)amino)methyl)-4-chloro-5-((3′-(3-(3-hydroxypyrrolidin-1-yl)propoxy)-2,2′-dimethyl-[1,1′-biphenyl]-3-yl)methoxy)phenoxy)methyl)nicotinonitrile], the negative-log IC50 (pIC50) is 9.70.

The compound `Cc1c(COc2cc(OCc3cncc(C#N)c3)c(CN(C)Cc3c[nH]cn3)cc2Cl)cccc1-c1cccc(OCCCN2CC[C@@H](O)C2)c1C` [Example 2007, (R)-5-((2-((((1H-imidazol-4-yl)methyl)(methyl)amino)methyl)-4-chloro-5-((3′-(3-(3-hydroxypyrrolidin-1-yl)propoxy)-2,2′-dimethyl-[1,1′-biphenyl]-3-yl)methoxy)phenoxy)methyl)nicotinonitrile] showed a negative logarithm of the IC50 (pIC50) of 9.22.

With `Cc1c(COc2cc(OCc3cncc(C#N)c3)c(CN(C)Cc3ncc[nH]3)cc2Cl)cccc1-c1cccc(OCCCN2CC[C@@H](O)C2)c1C` [Example 2008, (R)-5-((2-((((1H-imidazol-2-yl)methyl)(methyl)amino)methyl)-4-chloro-5-((3′-(3-(3-hydroxypyrrolidin-1-yl)propoxy)-2,2′-dimethyl-[1,1′-biphenyl]-3-yl)methoxy)phenoxy)methyl)nicotinonitrile], the negative-log IC50 (pIC50) is 9.30.

As to `Cc1c(COc2cc(OCc3cncc(C#N)c3)c(CNCc3ncn[nH]3)cc2Cl)cccc1-c1cccc(OCCCN2CCC(O)(CO)CC2)c1Cl` [Example 2009, 5-((2-((((1H-1,2,4-triazol-5-yl)methyl)amino)methyl)-4-chloro-5-((2′-chloro-3′-(3-(4-hydroxy-4-(hydroxymethyl)piperidin-1-yl)propoxy)-2-methyl-[1,1′-biphenyl]-3-yl)methoxy)phenoxy)methyl)nicotinonitrile], the negative logarithm of the IC50 (pIC50) was 8.68.

`Cc1c(COc2cc(OCc3cncc(C#N)c3)c(CNCc3c[nH]cn3)cc2Cl)cccc1-c1cccc(OCCCN2CCC(O)(CO)CC2)c1Cl` [Example 2010, 5-((2-((((1H-imidazol-4-yl)methyl)amino)methyl)-4-chloro-5-((2′-chloro-3′-(3-(4-hydroxy-4-(hydroxymethyl)piperidin-1-yl)propoxy)-2-methyl-[1,1′-biphenyl]-3-yl)methoxy)phenoxy)methyl)nicotinonitrile]: the negative logarithm of the IC50 (pIC50) was 8.68.

On to `Cc1c(COc2cc(OCc3cncc(C#N)c3)c(CNCc3ncc[nH]3)cc2Cl)cccc1-c1cccc(OCCCN2CCC(O)(CO)CC2)c1Cl` [Example 2011, 5-((2-((((1H-imidazol-2-yl)methyl)amino)methyl)-4-chloro-5-((2′-chloro-3′-(3-(4-hydroxy-4-(hydroxymethyl)piperidin-1-yl)propoxy)-2-methyl-[1,1′-biphenyl]-3-yl)methoxy)phenoxy)methyl)nicotinonitrile], for which the negative-log IC50 (pIC50) is 8.55.

Turning to `Cc1c(COc2cc(OCc3cncc(C#N)c3)c(CNCc3cc[nH]n3)cc2Cl)cccc1-c1cccc(OCCCN2CCC(O)(CO)CC2)c1Cl` [Example 2012, 5-((2-((((1H-pyrazol-3-yl)methyl)amino)methyl)-4-chloro-5-((2′-chloro-3′-(3-(4-hydroxy-4-(hydroxymethyl)piperidin-1-yl)propoxy)-2-methyl-[1,1′-biphenyl]-3-yl)methoxy)phenoxy)methyl)nicotinonitrile], the negative logarithm of the IC50 (pIC50) was 8.59.

`Cc1c(COc2cc(OCc3cncc(C#N)c3)c(CN(C)Cc3ncn[nH]3)cc2Cl)cccc1-c1cccc(OCCCN2CCC(O)(CO)CC2)c1Cl` [Example 2013, 5-((2-((((1H-1,2,4-triazol-5-yl)methyl)(methyl)amino)methyl)-4-chloro-5-((2′-chloro-3′-(3-(4-hydroxy-4-(hydroxymethyl)piperidin-1-yl)propoxy)-2-methyl-[1,1′-biphenyl]-3-yl)methoxy)phenoxy)methyl)nicotinonitrile]: the negative-log IC50 (pIC50) was 8.96.
